The target in one assay is T1, THR beta-LBD (Homo sapiens, UniProt P10828).
T1 construct: THR beta-LBD (the final concentration is 0.5 nM) was added to the 384-well assay plate; purchased Invitrogen PV4686
T1 sequence (P10828 217-461 limits assumed): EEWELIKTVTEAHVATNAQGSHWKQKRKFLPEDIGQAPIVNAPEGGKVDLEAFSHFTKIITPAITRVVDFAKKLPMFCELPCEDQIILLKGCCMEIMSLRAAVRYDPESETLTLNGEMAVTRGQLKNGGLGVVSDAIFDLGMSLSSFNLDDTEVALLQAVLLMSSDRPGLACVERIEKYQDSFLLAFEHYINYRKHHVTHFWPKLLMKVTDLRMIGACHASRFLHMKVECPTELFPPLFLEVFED
Briefly: THR-β Coactivator Peptide Recruitment Assay (LanthaScreen TR-FRET). The settings on record: TR-FRET coactivator recruitment, THR beta-LBD 0.5 nM; for pEC50: read-out: THRβ EC50. Format: biochemical. Here is the method: (§1) A time-resolved FRET (TR-FRET) assay was used to test representative compounds of the application.
(§2) THR-β Coactivator Peptide Recruitment Assay were conducted by using Invitrogen's LanthaScreen™ TR-FRET Thyroid Receptor beta Assay Kit (Catalog no. PV4686). Binding of an agonist to the nuclear receptor causes a subsequent binding of a coactivator peptide, resulting in fluorescence energy transfer from the labelled nuclear receptor to the proximal coactivator peptide, which reflects the binding affinity of the agonist and the nuclear receptor. The assay was conducted by following the manufacturer's instructions. Briefly, THR beta-LBD (the final concentration is 0.5 nM) was added to the 384-well assay plate containing test compounds, followed by addition of Fluorescein-SRC2-2 coactivator peptide and terbium (Tb)-labeled anti-GST antibody. The final concentration of THR beta-LBD, Fluorescein-SRC2-2 coactivator peptide and terbium (Tb)-labeled anti-GST antibody is 0.5 nM, 0.1 nM and 2 nM, respectively. After a gentle mix and incubation at room temperature for 2 h, the signal was read on the EnVision Multilabel Plate Reader at wavelengths of 520 nm and 495 nm. TR-FRET ratio was calculated by dividing the emission signal at 520 nm and the emission signal at 495 nm, and then was plotted against a sigmoidal dose response curve (four parameters, GraphPad™ Prism 8) to determine the EC50 value.

A further assay deals with T2, THR alpha-LBD (Homo sapiens, UniProt P10827).
T2 construct: except that THR alpha-LBD of a final concentration 0.25 nM was used; purchased Invitrogen PV4687
Briefly: THR-α Coactivator Peptide Recruitment Assay (LanthaScreen TR-FRET). Format: biochemical. The settings on record: TR-FRET coactivator recruitment, THR alpha-LBD 0.25 nM; for pEC50: read-out: THRα EC50. Here is the method: as §1, §2
THR-α Coactivator Peptide Recruitment Assay were conducted by using Invitrogen's LanthaScreen™ TR-FRET Thyroid Receptor alpha Assay Kit (Catalog no. PV4687), following the same method described above except that THR alpha-LBD of a final concentration 0.25 nM was used.

pEC50: −log10 of the molar value.

Consider 15 compounds from patent publication US12291518B2, “Thyroid hormone receptor agonists and use thereof” (Eccogene Inc., priority 2020, dated 2025).

T2 sequence (P10827 163-410 isoform P10827-2 limits assumed, other chains not shown): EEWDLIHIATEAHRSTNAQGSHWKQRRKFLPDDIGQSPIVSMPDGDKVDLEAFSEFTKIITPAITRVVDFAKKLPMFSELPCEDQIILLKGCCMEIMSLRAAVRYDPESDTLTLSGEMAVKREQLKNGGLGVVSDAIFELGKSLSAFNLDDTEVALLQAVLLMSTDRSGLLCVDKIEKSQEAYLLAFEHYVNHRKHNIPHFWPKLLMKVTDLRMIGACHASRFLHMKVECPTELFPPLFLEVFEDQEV

Regarding `O=C(NC1CC1)C1(NS(=O)(=O)c2cc(Oc3c(Cl)cc(-n4nc(C(F)F)c(=O)[nH]c4=O)cc3Cl)ccc2O)CC1` [Compound 71, N-cyclopropyl-1-[[5-[2,6-dichloro-4-[6-(difluoromethyl)-3,5-dioxo-1,2,4-triazin-2-yl]phenoxy]-2-hydroxy-phenyl]sulfonylamino] cyclopropane carboxamide], at THR beta-LBD, the “THRβ Emax” value is “A (90~110)” and the pEC50 – broadly, the negative decadic logarithm of the EC50, by convention in mol/L – is 7.70 to 8.70. At THR alpha-LBD, the “THRα Emax” value is “B (40~85)” and the pEC50 was 6.70 to 8.70.

Regarding `N#CC1(NS(=O)(=O)c2cc(Oc3c(Cl)cc(-n4nc(C(F)F)c(=O)[nH]c4=O)cc3Cl)ncc2O)CC1` [Compound 135, N-(1-cyanocyclopropyl)-2-(2,6-dichloro-4-(6-(difluoromethyl)-3,5-dioxo-4,5-dihydro-1,2,4-triazin-2(3H)-yl)phenoxy)-5-hydroxypyridine-4-sulfonamide], on THR beta-LBD, the “THRβ Emax” value is given as “A (90~110)” and the pEC50 is 7.70 to 8.70. Also, on THR alpha-LBD, the “THRα Emax” value was “A (85~110)” and the pEC50 is 6.70 to 8.70.

Regarding `O=c1[nH]c(=O)n(-c2cc(Cl)c(S(=O)(=O)c3ccc(O)c(C4CCC4)c3)c(Cl)c2)nc1C(F)(F)F` [Compound 9, 2-[3,5-dichloro-4-(3-cyclobutyl-4-hydroxy-phenyl)sulfonyl-phenyl]-6-(trifluoromethyl)-1,2,4-triazine-3,5-dione], on THR beta-LBD, the “THRβ Emax” value was “A (90~110)” and the pEC50 is < 7.00. Moreover, on THR alpha-LBD, the “THRα Emax” value is reported as “B (40~85)” and the pEC50 is 6.00 to 6.70.

As to `CN1CCN(S(=O)(=O)c2cc(Oc3c(Cl)cc(-n4nc(C(F)F)c(=O)[nH]c4=O)cc3Cl)ccc2O)CC1=O` [Compound 33, 2-(3,5-dichloro-4-(4-hydroxy-3-((4-methyl-3-oxopiperazin-1-yl)sulfonyl)phenoxy)phenyl)-6-(difluoromethyl)-1,2,4-triazine-3,5(2H,4H)-dione], on THR beta-LBD, the “THRβ Emax” value is reported as “C (<75)” and the pEC50 is > 8.70. On THR alpha-LBD, the “THRα Emax” value was “B (40~85)” and the pEC50 is 6.70 to 8.70.

For `O=c1[nH]c(=O)n(-c2cc(Cl)c(Oc3ccc(O)c(S(=O)(=O)NC4CC5(CC(O)C5)C4)c3)c(Cl)c2)nc1C(F)F` (stereo not drawn) [Compound 74, 5-[2,6-dichloro-4-[6-(difluoromethyl)-3,5-dioxo-1,2,4-triazin-2-yl]phenoxy]-2-hydroxy-N-(2-hydroxyspiro [3.3]heptan-6-yl) benzene sulfonamide], on THR beta-LBD, the “THRβ Emax” value is reported as “B (75~90)” and the pEC50 was 7.00 to 7.70. Moreover, at THR alpha-LBD, the “THRα Emax” value was “B (40~85)” and the pEC50 is 6.00 to 6.70.

For the compound `O=c1[nH]c(=O)n(-c2cc(Cl)c(Oc3cc(S(=O)(=O)N[C@H]4CC[C@H](O)CC4)c(O)cn3)c(Cl)c2)nc1C(F)F` [Compound 143, 2-(2,6-dichloro-4-(6-(difluoromethyl)-3,5-dioxo-4,5-dihydro-1,2,4-triazin-2(3H)-yl)phenoxy)-5-hydroxy-N-((1r,4r)-4-hydroxycyclohexyl)pyridine-4-sulfonamide], at THR beta-LBD, the “THRβ Emax” value is listed as “B (75~90)” and the negative logarithm of the EC50 (pEC50) is 7.70 to 8.70. For the same compound, at THR alpha-LBD, the “THRα Emax” value is listed as “B (40~85)” and the pEC50 was 6.00 to 6.70.

Consider `O=c1[nH]c(=O)n(-c2cc(Cl)c(Oc3cc(S(=O)(=O)N4CC[C@@H](O)C4)c(O)cn3)c(Cl)c2)nc1C(F)F` [Compound 141, (R)-2-(3,5-dichloro-4-((5-hydroxy-4-((3-hydroxypyrrolidin-1-yl)sulfonyl)pyridin-2-yl)oxy)phenyl)-6-(difluoromethyl)-1,2,4-triazine-3,5(2H,4H)-dione], for which, on THR beta-LBD, the “THRβ Emax” value is reported as “B (75~90)” and the pEC50 was 7.70 to 8.70. On THR alpha-LBD, the “THRα Emax” value is reported as “B (40~85)” and the pEC50 was 6.70 to 8.70.

Consider `O=c1[nH]c(=O)n(-c2cc(Cl)c(Oc3cc(S(=O)(=O)NC[C@H]4C[C@H](O)C4)c(O)cn3)c(Cl)c2)nc1C(F)F` [Compound 133, 2-(2,6-dichloro-4-(6-(difluoromethyl)-3,5-dioxo-4,5-dihydro-1,2,4-triazin-2(3H)-yl)phenoxy)-5-hydroxy-N-(((1r,3r)-3-hydroxycyclobutyl)methyl)pyridine-4-sulfonamide], for which, at THR beta-LBD, the “THRβ Emax” value was “B (75~90)” and the pEC50 was 7.00 to 7.70. Further, on THR alpha-LBD, the “THRα Emax” value is listed as “B (40~85)” and the pEC50 was < 6.00.

Regarding `CS(=O)(=O)N1CC[C@H](NS(=O)(=O)c2cc(Oc3c(Cl)cc(-n4nc(C(F)F)c(=O)[nH]c4=O)cc3Cl)ccc2O)C1` [Compound 50, (S)-5-(2,6-dichloro-4-(6-(difluoromethyl)-3,5-dioxo-4,5-dihydro-1,2,4-triazin-2(3H)-yl)phenoxy)-2-hydroxy-N-(1-(methylsulfonyl)pyrrolidin-3-yl)benzenesulfonamide], at THR beta-LBD, the “THRβ Emax” value is reported as “C (<75)” and the pEC50 was 7.70 to 8.70. Moreover, at THR alpha-LBD, the “THRα Emax” value was “B (40~85)” and the pEC50 was 6.00 to 6.70.

With `O=c1[nH]c(=O)n(-c2cc(Cl)c(Oc3cc(S(=O)(=O)N[C@@H]4CC[C@@H]4O)c(O)cn3)c(Cl)c2)nc1C(F)F` (stereo in doubt) [Compound 170, 2-[2,6-dichloro-4-[6-(difluoromethyl)-3,5-dioxo-1,2,4-triazin-2-yl]phenoxy]-5-hydroxy-N-[(1R,2S)-2-hydroxycyclobutyl]pyridine-4-sulfonamide], on THR beta-LBD, the “THRβ Emax” value is given as “C (<75)” and the pEC50 is 7.00 to 7.70. Further, on THR alpha-LBD, the “THRα Emax” value is “B (40~85)” and the pEC50 is 6.00 to 6.70.

`NC(=O)C1(NS(=O)(=O)c2cc(Oc3c(Cl)cc(-n4nc(C(F)F)c(=O)[nH]c4=O)cc3Cl)ccc2O)CC1` [Compound 24, 1-[[5-[2,6-dichloro-4-[6-(difluoromethyl)-3,5-dioxo-1,2,4-triazin-2-yl]phenoxy]-2-hydroxy-phenyl]sulfonylamino]cyclopropanecarboxamide]: on THR beta-LBD, the “THRβ Emax” value is reported as “A (90~110)” and the pEC50 was > 8.70. Also, on THR alpha-LBD, the “THRα Emax” value was “A (85~110)” and the pEC50 was 6.70 to 8.70.

Turning to `O=C(NC12CC3(F)CC(F)(CC(F)(C3)C1)C2)c1cc(Oc2c(Cl)cc(-n3nc(C(F)F)c(=O)[nH]c3=O)cc2Cl)ccc1O` [Compound 6, 5-(2,6-dichloro-4-(6-(difluoromethyl)-3,5-dioxo-4,5-dihydro-1,2,4-triazin-2 (3H)-yl)phenoxy)-2-hydroxy-N-(3,5,7-trifluoroadamantan-1-yl) benzamide], at THR beta-LBD, the “THRβ Emax” value is “B (75~90)” and the pEC50 was 7.00 to 7.70. On THR alpha-LBD, the “THRα Emax” value is “B (40~85)” and the pEC50 is < 6.00.

With `O=c1[nH]c(=O)n(-c2cc(Cl)c(Oc3cc(S(=O)(=O)N[C@H]4C[C@@H](O)C4)c(O)cn3)c(Cl)c2)nc1C(F)F` [Compound 132, 2-(2,6-dichloro-4-(6-(difluoromethyl)-3,5-dioxo-4,5-dihydro-1,2,4-triazin-2(3H)-yl)phenoxy)-5-hydroxy-N-((1s,3s)-3-hydroxycyclobutyl)pyridine-4-sulfonamide], on THR beta-LBD, the “THRβ Emax” value is listed as “A (90~110)” and the pEC50 was 7.70 to 8.70. In addition, on THR alpha-LBD, the “THRα Emax” value is “B (40~85)” and the pEC50 was 6.00 to 6.70.

As to `N#C[C@H]1C[C@H](NS(=O)(=O)c2cc(Oc3c(Cl)cc(-n4nc(C(F)F)c(=O)[nH]c4=O)cc3Cl)ncc2O)C1` [Compound 130, N-(3-cyanocyclobutyl)-2-[2,6-dichloro-4-[6-(difluoromethyl)-3,5-dioxo-1,2,4-triazin-2-yl]phenoxy]-5-hydroxy-pyridine-4-sulfonamide], at THR beta-LBD, the “THRβ Emax” value is recorded as “B (75~90)” and the pEC50 was 7.70 to 8.70. At THR alpha-LBD, the “THRα Emax” value was “B (40~85)” and the pEC50 is 6.00 to 6.70.

As for `O=C(CNS(=O)(=O)c1cc(Oc2c(Cl)cc(-n3nc(C(F)F)c(=O)[nH]c3=O)cc2Cl)ccc1O)NCC(F)F` [Compound 88, 2-((5-(2,6-dichloro-4-(6-(difluoromethyl)-3,5-dioxo-4,5-dihydro-1,2,4-triazin-2(3H)-yl)phenoxy)-2-hydroxyphenyl)sulfonamido)-N-(2,2-difluoroethyl)acetamide], on THR beta-LBD, the “THRβ Emax” value is “B (75~90)” and the negative logarithm of the EC50 (pEC50) is 7.00 to 7.70. Besides, on THR alpha-LBD, the “THRα Emax” value was “B (40~85)” and the pEC50 was 6.00 to 6.70.
